# Test results from patent publication US20230295234A1, “ANTIMICROBIAL PEPTIDOMIMETICS” (SPEXIS AG, priority 2020, published 2023).
# Like-named read-outs stand apart in the source and are kept apart here. Peptide text beside a SMILES is read from it.
# Assays:
# [1] = test system: human red blood cells (hRBC); assay: Hemolysis of human red blood cells; type: cell-based
# Procedure, shortened: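 Percent hemolysis is OD540 of peptide-treated supernatant relative to water-lysed cells. Each peptide was tested at 200 μg/mL against 20% (v/v) washed human erythrocytes. Incubation was 1 h at 37 °C, 300 rpm.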
# [2] = test system: Klebsiella pneumoniae SSI3010
# Procedure, shortened: (§1)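 First, bacterial colonies are suspended in saline and adjusted to 0.5 McFarland. Next, the suspension is diluted into cation-adjusted Mueller-Hinton II broth (approx. 5×10^5 CFU/mL). Finally, it is added to two-fold serially diluted peptide, with polysorbate 80 at 0.002% final.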
# [3] = test system: Escherichia coli ATCC 25922
# Procedure, shortened: as §1
# [4] = test system: Escherichia coli MCR-1 Af 45; details: Mueller-Hinton broth II, 18-20 hours at 35° C.
# Procedure, shortened: as §1
# [5] = Mueller-Hinton broth II, 18-20 hours at 35° C.
SMILES,"Hemolysis at 0.2 g/L ([1]; 20% hRBC, 1 h at 37° C.)","Klebsiella pneumoniae SSI3010 MIC [2, 5]","Escherichia coli ATCC 25922 MIC [3, 5]",Escherichia coli MCR-1 Af 45 MIC [4],"Hemolysis at 0.2 g/L ([1]; red cells of human, 1 h)",Klebsiella pneumoniae SSI3010 MIC ([2]; SSI3010),Escherichia coli ATCC 25922 MIC ([3]; ATCC 25922)
"CCCC[C@H](NC(=O)[C@H](CCCNC(=N)N)NC(=O)[C@H](CCN)NC(=O)[C@@H]1CSSC(C)(C)[C@H](NC(=O)[C@H](Cc2ccc(O)cc2)NC(=O)[C@@H](NC(=O)[C@@H](NC(=O)[C@@H]2C[C@@H](N)CN2C(=O)[C@@H](N)C(C)C)[C@@H](C)CC)[C@@H](C)CC)C(=O)N[C@@H](CC(N)=O)C(=O)N[C@@H](CCCNC(=N)N)C(=O)N[C@@H](CCCNC(=N)N)C(=O)N[C@@H]([C@@H](C)O)C(=O)N[C@H](CCN)C(=O)N[C@@H](CCCCN)C(=O)N1)C(=O)O [Example 135] (HELM PEPTIDE1{V.[N[C@@H]1C[C@@H](C(=O)[*:2])N([*:1])C1].I.I.Y.[Pen].N.R.R.T.[NCC[C@@H](N[*:1])C(=O)[*:2]].K.C.[Dab].R.[Nle]}$PEPTIDE1,PEPTIDE1,6:R3-13:R3$$$V2.0)",0%,0.125 µg/mL,0.0625 µg/mL,0.0625 µg/mL,–,–,–
"CCCC[C@H](NC(=O)[C@H](CCCNC(=N)N)NC(=O)[C@H](CCN)NC(=O)[C@@H]1CSSC(C)(C)[C@H](NC(=O)[C@H](Cc2ccc(O)cc2)NC(=O)[C@@H](NC(=O)[C@@H](NC(=O)[C@@H]2C[C@@H](N)CN2C(=O)[C@@H](N)C(C)C)[C@@H](C)CC)[C@@H](C)CC)C(=O)N[C@@H](CC(N)=O)C(=O)N[C@@H](CCCNC(=N)N)C(=O)N[C@@H](CCN)C(=O)N[C@@H]([C@@H](C)O)C(=O)N[C@H](CCN)C(=O)N[C@@H](CCCCN)C(=O)N1)C(=O)O [Example 136] (HELM PEPTIDE1{V.[N[C@@H]1C[C@@H](C(=O)[*:2])N([*:1])C1].I.I.Y.[Pen].N.R.[Dab].T.[NCC[C@@H](N[*:1])C(=O)[*:2]].K.C.[Dab].R.[Nle]}$PEPTIDE1,PEPTIDE1,6:R3-13:R3$$$V2.0)",–,–,–,0.0625 µg/mL,0%,0.125 µg/mL,0.125 µg/mL
"CCCC[C@H](NC(=O)[C@H](CCCNC(=N)N)NC(=O)[C@H](CCN)NC(=O)[C@@H]1CSSC(C)(C)[C@H](NC(=O)[C@H](Cc2ccc(O)cc2)NC(=O)[C@@H](NC(=O)[C@@H](NC(=O)CN(CCN)C(=O)[C@@H](N)C(C)C)[C@@H](C)CC)[C@@H](C)CC)C(=O)N[C@@H](CC(N)=O)C(=O)N[C@@H](CCCNC(=N)N)C(=O)N[C@@H](CCN)C(=O)N[C@@H]([C@@H](C)O)C(=O)N[C@H](CCN)C(=O)N[C@@H](CCCCN)C(=O)N1)C(=O)O [Example 137] (HELM PEPTIDE1{V.[NCCN(CC(=O)[*:2])[*:1]].I.I.Y.[Pen].N.R.[Dab].T.[NCC[C@@H](N[*:1])C(=O)[*:2]].K.C.[Dab].R.[Nle]}$PEPTIDE1,PEPTIDE1,6:R3-13:R3$$$V2.0)",–,–,–,0.0625 µg/mL,0%,0.25 µg/mL,0.125 µg/mL
"CCCC[C@H](NC(=O)[C@H](CCCNC(=N)N)NC(=O)[C@H](CCN)NC(=O)[C@@H]1CSSC(C)(C)[C@H](NC(=O)[C@H](Cc2ccc(O)cc2)NC(=O)[C@@H](NC(=O)[C@@H](NC(=O)[C@@H]2C[C@@H](N)CN2C(=O)[C@@H](N)C(C)C)[C@@H](C)CC)[C@@H](C)O)C(=O)N[C@@H](CC(N)=O)C(=O)N[C@@H](CCCNC(=N)N)C(=O)N[C@@H](CCN)C(=O)N[C@@H]([C@@H](C)O)C(=O)N[C@H](CCN)C(=O)N[C@@H](CCCCN)C(=O)N1)C(=O)O [Example 138] (HELM PEPTIDE1{V.[N[C@@H]1C[C@@H](C(=O)[*:2])N([*:1])C1].I.T.Y.[Pen].N.R.[Dab].T.[NCC[C@@H](N[*:1])C(=O)[*:2]].K.C.[Dab].R.[Nle]}$PEPTIDE1,PEPTIDE1,6:R3-13:R3$$$V2.0)",–,–,–,0.0625 µg/mL,0%,0.25 µg/mL,0.125 µg/mL
"CC[C@H](C)[C@H](NC(=O)[C@@H](NC(=O)[C@@H]1CCCN1C(=O)[C@@H](N)C(C)C)[C@@H](C)CC)C(=O)N[C@@H](Cc1ccc(O)cc1)C(=O)N[C@H]1CSSC[C@@H](C(=O)N[C@@H](CCN)C(=O)N[C@@H](CCCNC(=N)N)C(=O)N[C@@H](CC2CCCCC2)C(=O)O)NC(=O)[C@H](CCCCN)NC(=O)[C@@H](CCN)NC(=O)[C@H]([C@@H](C)O)NC(=O)[C@H](CCN)NC(=O)[C@H](CCCNC(=N)N)NC(=O)[C@H](CC(N)=O)NC1=O [Example 139] (HELM PEPTIDE1{V.P.I.I.Y.C.N.R.[Dab].T.[NCC[C@@H](N[*:1])C(=O)[*:2]].K.C.[Dab].R.[Cha]}$PEPTIDE1,PEPTIDE1,6:R3-13:R3$$$V2.0)",–,–,–,0.0625 µg/mL,0%,0.125 µg/mL,0.0625 µg/mL
"CC[C@H](C)[C@H](NC(=O)[C@@H](NC(=O)[C@@H]1CCCN1C(=O)[C@@H](N)C(C)C)[C@@H](C)CC)C(=O)N[C@@H](Cc1ccc(O)cc1)C(=O)N[C@@H]1C(=O)N[C@@H](CC(N)=O)C(=O)N[C@@H](CCCNC(=N)N)C(=O)N[C@@H](CCN)C(=O)N[C@@H]([C@@H](C)O)C(=O)N[C@H](CCN)C(=O)N[C@@H](CCCCN)C(=O)N[C@H](C(=O)N[C@@H](CCN)C(=O)N[C@@H](CCCNC(=N)N)C(=O)N[C@@H](Cc2ccc(O)cc2)C(=O)O)CSSC1(C)C [Example 140] (HELM PEPTIDE1{V.P.I.I.Y.[Pen].N.R.[Dab].T.[NCC[C@@H](N[*:1])C(=O)[*:2]].K.C.[Dab].R.Y}$PEPTIDE1,PEPTIDE1,6:R3-13:R3$$$V2.0)",0%,0.125 µg/mL,0.0625 µg/mL,0.0625 µg/mL,–,–,–
"CC[C@H](C)[C@H](NC(=O)[C@@H](NC(=O)[C@@H]1CCCN1C(=O)[C@@H](N)C(C)C)[C@@H](C)CC)C(=O)N[C@@H](Cc1ccc(O)cc1)C(=O)N[C@H]1CSSC(C)(C)[C@@H](C(=O)N[C@@H](CCN)C(=O)N[C@@H](CCCNC(=N)N)C(=O)N[C@@H](Cc2ccc(O)cc2)C(=O)O)NC(=O)[C@H](CCCCN)NC(=O)[C@@H](CCN)NC(=O)[C@H]([C@@H](C)O)NC(=O)[C@H](CCN)NC(=O)[C@H](CCCNC(=N)N)NC(=O)[C@H](CC(N)=O)NC1=O [Example 141] (HELM PEPTIDE1{V.P.I.I.Y.C.N.R.[Dab].T.[NCC[C@@H](N[*:1])C(=O)[*:2]].K.[Pen].[Dab].R.Y}$PEPTIDE1,PEPTIDE1,6:R3-13:R3$$$V2.0)",–,–,–,0.0625 µg/mL,0%,0.25 µg/mL,0.0625 µg/mL
"CC[C@H](C)[C@H](NC(=O)[C@@H](NC(=O)[C@@H]1C[C@@H](N)CN1C(=O)[C@@H](N)C(C)C)[C@@H](C)CC)C(=O)N[C@@H](Cc1ccc(O)cc1)C(=O)N[C@H]1CSSC[C@@H](C(=O)N[C@@H](CCN)C(=O)N[C@@H](CCCNC(=N)N)C(=O)N[C@@H](Cc2ccc(O)cc2)C(=O)O)NC(=O)[C@H](CCCCN)NC(=O)[C@@H](CCN)NC(=O)[C@H]([C@@H](C)O)NC(=O)[C@H](CCN)NC(=O)[C@H](CCCNC(=N)N)NC(=O)[C@H](CC(N)=O)NC1=O [Example 142] (HELM PEPTIDE1{V.[N[C@@H]1C[C@@H](C(=O)[*:2])N([*:1])C1].I.I.Y.C.N.R.[Dab].T.[NCC[C@@H](N[*:1])C(=O)[*:2]].K.C.[Dab].R.Y}$PEPTIDE1,PEPTIDE1,6:R3-13:R3$$$V2.0)",–,–,–,0.0625 µg/mL,0%,0.0625 µg/mL,0.125 µg/mL
"CC[C@H](C)[C@H](NC(=O)[C@@H](NC(=O)[C@@H]1C[C@@H](O)CN1C(=O)[C@@H](N)C(C)C)[C@@H](C)CC)C(=O)N[C@@H](Cc1ccc(O)cc1)C(=O)N[C@H]1CSSC[C@@H](C(=O)N[C@@H](CCN)C(=O)N[C@@H](CCCNC(=N)N)C(=O)N[C@@H](Cc2ccc(O)cc2)C(=O)O)NC(=O)[C@H](CCCCN)NC(=O)[C@@H](CCN)NC(=O)[C@H]([C@@H](C)O)NC(=O)[C@H](CCN)NC(=O)[C@H](CCCNC(=N)N)NC(=O)[C@H](CC(N)=O)NC1=O [Example 143] (HELM PEPTIDE1{V.[Hyp].I.I.Y.C.N.R.[Dab].T.[NCC[C@@H](N[*:1])C(=O)[*:2]].K.C.[Dab].R.Y}$PEPTIDE1,PEPTIDE1,6:R3-13:R3$$$V2.0)",–,–,–,0.03125 µg/mL,0%,0.125 µg/mL,0.0625 µg/mL
"CC[C@H](C)[C@H](NC(=O)[C@@H]1CCCN1C(=O)[C@@H](N)C(C)C)C(=O)N[C@H](C(=O)N[C@@H](Cc1ccc(O)cc1)C(=O)N[C@H]1CSSC[C@@H](C(=O)N[C@@H](CCN)C(=O)N[C@@H](CCCNC(=N)N)C(=O)N[C@@H](Cc2ccc(O)cc2)C(=O)O)NC(=O)[C@H](CCCCN)NC(=O)[C@@H](CCN)NC(=O)[C@H]([C@@H](C)O)NC(=O)[C@H](CCN)NC(=O)[C@H](CCCNC(=N)N)NC(=O)[C@H](CC(N)=O)NC1=O)[C@@H](C)O [Example 144] (HELM PEPTIDE1{V.P.I.T.Y.C.N.R.[Dab].T.[NCC[C@@H](N[*:1])C(=O)[*:2]].K.C.[Dab].R.Y}$PEPTIDE1,PEPTIDE1,6:R3-13:R3$$$V2.0)",–,–,–,0.25 µg/mL,0%,0.125 µg/mL,0.0625 µg/mL
